ChEMBL document CHEMBL4725459, “Novel Pyrazoles as Hemoglobin Modulators for Treating Sickle Cell Disease” (ACS Med Chem Lett, 2020)

What was measured:
[1] = Binding affinity to purified human sickle cell hemoglobin by SPR assay
[2] = Stabilization of purified human sickle cell hemoglobin at its oxygenated (R) state assessed as reduction in conversion from oxygenated (R, relaxed state) to deoxygenated (T, tense state) under deoxygenating conditions

In the case of `C[C@H](Oc1cc2cc(F)cc(F)c2nc1N)c1ncc(F)cc1-n1cccn1`, the Kd [1] is reported as 45 nM and the IC50 [2] is reported as 3620 nM.

`C[C@H](Oc1cc2cc(F)ccc2nc1N)c1nc(OCCO)ccc1-n1cccn1` showed a Kd [1] of 44 nM and an IC50 [2] of 3830 nM.

Compound `CC(=O)c1nc2[nH]ncc2cc1-n1cccn1` has a Kd [1] of 36 nM and an IC50 [2] of 3760 nM.

In the case of `C[C@H](Oc1cc2cc(C(N)=O)cc(F)c2nc1N)c1ncc(F)cc1-n1cccn1`, the Kd [1] is reported as 68 nM and the IC50 [2] is reported as 3930 nM.

For `C[C@H](Oc1cc2cc(F)ccc2nc1N)c1cc(OCC(=O)O)ccc1-n1cccn1`, the Kd [1] was 63 nM and the IC50 [2] was 3890 nM.

Work on `C[C@H](Oc1cc2cc(F)ccc2nc1N)c1cc(CCC(=O)O)ccc1-n1cccn1` yielded a Kd [1] of 188 nM and an IC50 [2] of 3600 nM.
